Test results as given in the supplement of paper PMC10307832.

Experiments:
Experiment in all cases: relative viability (nuclei count vs DMSO), 5 days (fraction); higher = more cells survive
NCI-H1793 = test system: NCI-H1793
Outline: (§1)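 After 5 days of treatment, lung cancer cells in 1536-well plates were fixed and stained in a single step (final 0.05% Triton X-100, 1% formaldehyde, 1 ug/ml Hoechst) and their nuclei counted on 4× images. Treatment had been applied by pin tool the day after seeding as one drug alone or as a fixed anchor-drug dose with five library-drug doses (not always all listed) in √10 steps. Relative viability is the nuclei count of treated wells divided by that of vehicle wells, and values are medians of duplicate plates.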

HOP-62 = test system: HOP-62
Outline: as §1

NCI-H1792 = test system: NCI-H1792
Outline: as §1

LC-2-ad = test system: LC-2-ad
Outline: as §1

NCI-H1944 = test system: NCI-H1944
Outline: as §1

NCI-H1915 = test system: NCI-H1915
Outline: as §1

LXF-289 = test system: LXF-289
Outline: as §1

LCLC-97TM1 = test system: LCLC-97TM1
Outline: as §1

NCI-H2170 = test system: NCI-H2170
Outline: as §1

EPLC-272H = test system: EPLC-272H
Outline: as §1

COR-L 105 = test system: COR-L 105
Outline: as §1

A-427 = test system: A-427
Outline: as §1

NCI-H1755 = test system: NCI-H1755
Outline: as §1

NCI-H2342 = test system: NCI-H2342
Outline: as §1

NCI-H2085 = test system: NCI-H2085
Outline: as §1

UMC-11 = test system: UMC-11
Outline: as §1

NCI-H358 = test system: NCI-H358
Outline: as §1

SW 900 = test system: SW 900
Outline: as §1

SK-LU-1 = test system: SK-LU-1
Outline: as §1

NCI-H460 = test system: NCI-H460
Outline: as §1

LU99A = test system: LU99A
Outline: as §1

NCI-H1975 = test system: NCI-H1975
Outline: as §1

Clc1ccc(Nc2nnc(Cc3ccncc3)c3ccccc23)cc1 [Vatalanib] + CCNC(=O)c1noc(-c2cc(C(C)C)c(O)cc2O)c1-c1ccc(CN2CCOCC2)cc1 [Luminespib] (partner 0.01 µM)
relative viability (NCI-H1793; first compound 0.04 µM): 0.156
relative viability (NCI-H1793; first compound 0.1265 µM): 0.19
relative viability (NCI-H1793; first compound 0.4 µM): 0.192
relative viability (NCI-H1793; first compound 1.265 µM): 0.166
relative viability (NCI-H1793; first compound 4 µM): 0.2
relative viability (HOP-62; first compound 0.04 µM): 0.928
relative viability (HOP-62; first compound 0.1265 µM): 0.925
relative viability (HOP-62; first compound 0.4 µM): 0.895
relative viability (HOP-62; first compound 1.265 µM): 0.883
relative viability (HOP-62; first compound 4 µM): 0.959
relative viability (NCI-H1792; first compound 0.04 µM): 0.475
relative viability (NCI-H1792; first compound 0.1265 µM): 0.492
relative viability (NCI-H1792; first compound 0.4 µM): 0.4
relative viability (NCI-H1792; first compound 1.265 µM): 0.564
relative viability (NCI-H1792; first compound 4 µM): 0.387
relative viability (LC-2-ad; first compound 0.04 µM): 1.1
relative viability (LC-2-ad; first compound 0.1265 µM): 1.04
relative viability (LC-2-ad; first compound 1.265 µM): 0.997
relative viability (LC-2-ad; first compound 4 µM): 0.948
relative viability (NCI-H1944; first compound 0.04 µM): 0.796
relative viability (NCI-H1944; first compound 0.1265 µM): 0.687
relative viability (NCI-H1944; first compound 0.4 µM): 0.845
relative viability (NCI-H1944; first compound 1.265 µM): 0.679
relative viability (NCI-H1944; first compound 4 µM): 0.752
relative viability (NCI-H1915; first compound 0.04 µM): 0.847
relative viability (NCI-H1915; first compound 0.1265 µM): 0.7
relative viability (NCI-H1915; first compound 0.4 µM): 0.828
relative viability (NCI-H1915; first compound 1.265 µM): 0.846
relative viability (NCI-H1915; first compound 4 µM): 0.758
relative viability (LXF-289; first compound 0.04 µM): 0.703
relative viability (LXF-289; first compound 0.1265 µM): 0.634
relative viability (LXF-289; first compound 0.4 µM): 0.734
relative viability (LXF-289; first compound 1.265 µM): 0.623
relative viability (LXF-289; first compound 4 µM): 0.633
relative viability (LCLC-97TM1; first compound 0.04 µM): 0.715
relative viability (LCLC-97TM1; first compound 0.1265 µM): 0.808
relative viability (LCLC-97TM1; first compound 0.4 µM): 0.741
relative viability (LCLC-97TM1; first compound 1.265 µM): 0.725
relative viability (LCLC-97TM1; first compound 4 µM): 0.951
relative viability (NCI-H2170; first compound 0.04 µM): 0.79
relative viability (NCI-H2170; first compound 0.1265 µM): 0.644
relative viability (NCI-H2170; first compound 0.4 µM): 0.715
relative viability (NCI-H2170; first compound 1.265 µM): 0.641
relative viability (NCI-H2170; first compound 4 µM): 0.692
relative viability (EPLC-272H; first compound 0.04 µM): 0.593
relative viability (EPLC-272H; first compound 0.1265 µM): 0.654
relative viability (EPLC-272H; first compound 0.4 µM): 0.26
relative viability (EPLC-272H; first compound 1.265 µM): 0.2
relative viability (EPLC-272H; first compound 4 µM): 0.296
relative viability (COR-L 105; first compound 0.04 µM): 0.814
relative viability (COR-L 105; first compound 0.1265 µM): 0.7
relative viability (COR-L 105; first compound 0.4 µM): 0.877
relative viability (COR-L 105; first compound 1.265 µM): 0.843
relative viability (COR-L 105; first compound 4 µM): 0.74
relative viability (A-427; first compound 0.04 µM): 0.861
relative viability (A-427; first compound 0.1265 µM): 0.909
relative viability (A-427; first compound 0.4 µM): 1.03
relative viability (A-427; first compound 1.265 µM): 0.927
relative viability (A-427; first compound 4 µM): 0.948
relative viability (NCI-H1755; first compound 0.04 µM): 0.419
relative viability (NCI-H1755; first compound 0.1265 µM): 0.439
relative viability (NCI-H1755; first compound 0.4 µM): 0.556
relative viability (NCI-H1755; first compound 1.265 µM): 0.316
relative viability (NCI-H1755; first compound 4 µM): 0.453
relative viability (NCI-H2342; first compound 0.04 µM): 0.684
relative viability (NCI-H2342; first compound 0.1265 µM): 0.684
relative viability (NCI-H2342; first compound 0.4 µM): 0.822
relative viability (NCI-H2342; first compound 1.265 µM): 0.869
relative viability (NCI-H2342; first compound 4 µM): 0.658
relative viability (NCI-H2085; first compound 0.04 µM): 0.474
relative viability (NCI-H2085; first compound 0.1265 µM): 0.529
relative viability (NCI-H2085; first compound 0.4 µM): 0.464
relative viability (NCI-H2085; first compound 1.265 µM): 0.609
relative viability (NCI-H2085; first compound 4 µM): 0.469
relative viability (UMC-11; first compound 0.04 µM): 1.08
relative viability (UMC-11; first compound 0.1265 µM): 1.11
relative viability (UMC-11; first compound 0.4 µM): 0.996
relative viability (UMC-11; first compound 1.265 µM): 1.02
relative viability (UMC-11; first compound 4 µM): 1.01
relative viability (NCI-H358; first compound 0.04 µM): 0.498
relative viability (NCI-H358; first compound 0.1265 µM): 0.381
relative viability (NCI-H358; first compound 0.4 µM): 0.353
relative viability (NCI-H358; first compound 1.265 µM): 0.345
relative viability (NCI-H358; first compound 4 µM): 0.308
relative viability (SW 900; first compound 0.1265 µM): 0.178
relative viability (SW 900; first compound 0.4 µM): 0.224
relative viability (SW 900; first compound 1.265 µM): 0.166
relative viability (SW 900; first compound 4 µM): 0.192
relative viability (SK-LU-1; first compound 0.04 µM): 0.21
relative viability (SK-LU-1; first compound 0.1265 µM): 0.197
relative viability (SK-LU-1; first compound 0.4 µM): 0.241
relative viability (SK-LU-1; first compound 1.265 µM): 0.218
relative viability (SK-LU-1; first compound 4 µM): 0.232
relative viability (NCI-H460; first compound 0.04 µM): 0.0407
relative viability (NCI-H460; first compound 0.1265 µM): 0.0276
relative viability (NCI-H460; first compound 0.4 µM): 0.0374
relative viability (NCI-H460; first compound 1.265 µM): 0.0261
relative viability (NCI-H460; first compound 4 µM): 0.0364
relative viability (LU99A; first compound 0.04 µM): 0.255
relative viability (LU99A; first compound 0.1265 µM): 0.238
relative viability (LU99A; first compound 0.4 µM): 0.264
relative viability (LU99A; first compound 1.265 µM): 0.286
relative viability (LU99A; first compound 4 µM): 0.246
relative viability (NCI-H1975; first compound 0.04 µM): 0.154
relative viability (NCI-H1975; first compound 0.1265 µM): 0.238
relative viability (NCI-H1975; first compound 0.4 µM): 0.237
relative viability (NCI-H1975; first compound 1.265 µM): 0.29
relative viability (NCI-H1975; first compound 4 µM): 0.177
